“And” between values parts separate entries of the source, which are not always exact repeats. Equal entries are not always repeated. Toxic doses and inconclusive results are not listed.
System: L1210 leukemia ip in BDF1 mice, survival T/C
Assay: NCI In Vivo Anticancer Drug Screen. Data for tumor model L1210 Leukemia (intraperitoneal) in B6D2F1 (BDF1) mice
Conditions: higher = longer survival
How it was run: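 Tumor was transplanted into mice, which were then dosed with test compound or vehicle alone. Survival was recorded for each group, and the treated figure was expressed relative to the control figure.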

In the case of `NC(C/[N+]([O-])=N/O)C(=O)O` (stereo not given), the T/C (endpoint: mean survival time, dose: 6.25 mg/kg/injection, schedule: Q01DX009 (ip), vehicle: saline) is reported as 117 % of control and 118 % of control, the T/C (endpoint: mean survival time, dose: 8.0 mg/kg/injection, schedule: Q03HX016 (ip), vehicle: saline) is reported as 111 % of control and the T/C (endpoint: mean survival time, dose: 8.0 mg/kg/injection, schedule: Q03HX024 (ip), vehicle: saline) is reported as 113 % of control. The T/C (endpoint: mean survival time, dose: 12.5 mg/kg/injection, schedule: Q01DX009 (ip), vehicle: saline) was 117 % of control and 122 % of control and 123 % of control, the T/C (endpoint: mean survival time, dose: 16.0 mg/kg/injection, schedule: Q03HX008 (ip), vehicle: saline) was 111 % of control and the T/C (endpoint: mean survival time, dose: 16.0 mg/kg/injection, schedule: Q03HX016 (ip), vehicle: saline) was 116 % of control. The T/C (endpoint: mean survival time, dose: 16.0 mg/kg/injection, schedule: Q03HX024 (ip), vehicle: saline) was 118 % of control, the T/C (endpoint: mean survival time, dose: 20.0 mg/kg/injection, schedule: Q01DX009 (ip), vehicle: saline) was 118 % of control and the T/C (endpoint: mean survival time, dose: 25.0 mg/kg/injection, schedule: Q01DX001 (ip), vehicle: carboxymethylcellulose (CMC)) was 112 % of control. For the same compound, the T/C (endpoint: mean survival time, dose: 25.0 mg/kg/injection, schedule: Q01DX009 (ip), vehicle: saline) was 120 % of control and 123 % of control, the T/C (endpoint: mean survival time, dose: 30.0 mg/kg/injection, schedule: Q01DX009 (ip), vehicle: saline with Tween-80) was 111 % of control and the T/C (endpoint: mean survival time, dose: 32.0 mg/kg/injection, schedule: Q01DX009 (ip), vehicle: saline) was 116 % of control. The T/C (endpoint: mean survival time, dose: 32.0 mg/kg/injection, schedule: Q01DX009 (sc), vehicle: saline) was 117 % of control, the T/C (endpoint: mean survival time, dose: 32.0 mg/kg/injection, schedule: Q03HX008 (ip), vehicle: saline) was 116 % of control and the T/C (endpoint: mean survival time, dose: 32.0 mg/kg/injection, schedule: Q03HX024 (ip), vehicle: saline) was 121 % of control. The T/C (endpoint: mean survival time, dose: 40.0 mg/kg/injection, schedule: Q01DX009 (ip), vehicle: saline) was 121 % of control, the T/C (endpoint: mean survival time, dose: 44.0 mg/kg/injection, schedule: Q01DX009 (ip), vehicle: saline with Tween-80) was 108 % of control and the T/C (endpoint: mean survival time, dose: 50.0 mg/kg/injection, schedule: Q01DX001 (ip), vehicle: carboxymethylcellulose (CMC)) was 106 % of control. The T/C (endpoint: mean survival time, dose: 54.0 mg/kg/injection, schedule: Q04DX003 (ip), vehicle: saline with Tween-80) was 110 % of control, the T/C (endpoint: mean survival time, dose: 64.0 mg/kg/injection, schedule: Q01DX001 (oral), vehicle: saline) was 107 % of control and the T/C (endpoint: mean survival time, dose: 64.0 mg/kg/injection, schedule: Q01DX009 (ip), vehicle: saline) was 123 % of control. For the same compound, the T/C (endpoint: mean survival time, dose: 64.0 mg/kg/injection, schedule: Q01DX009 (oral), vehicle: saline) was 92 % of control, the T/C (endpoint: mean survival time, dose: 64.0 mg/kg/injection, schedule: Q01DX009 (sc), vehicle: saline) was 118 % of control and the T/C (endpoint: mean survival time, dose: 64.0 mg/kg/injection, schedule: Q03HX008 (ip), vehicle: saline) was 116 % of control. For the same compound, the T/C (endpoint: mean survival time, dose: 64.0 mg/kg/injection, schedule: Q03HX024 (ip), vehicle: saline) was 122 % of control, the T/C (endpoint: mean survival time, dose: 64.0 mg/kg/injection, schedule: Q04DX003 (ip), vehicle: saline) was 117 % of control and the T/C (endpoint: mean survival time, dose: 64.0 mg/kg/injection, schedule: Q08DX002 (ip), vehicle: saline) was 117 % of control. For the same compound, the T/C (endpoint: mean survival time, dose: 67.0 mg/kg/injection, schedule: Q01DX009 (ip), vehicle: saline with Tween-80) was 104 % of control, the T/C (endpoint: mean survival time, dose: 100.0 mg/kg/injection, schedule: Q01DX001 (ip), vehicle: carboxymethylcellulose (CMC)) was 110 % of control and the T/C (endpoint: mean survival time, dose: 100.0 mg/kg/injection, schedule: Q04DX003 (ip), vehicle: saline with Tween-80) was 123 % of control. The T/C (endpoint: mean survival time, dose: 128.0 mg/kg/injection, schedule: Q01DX001 (ip), vehicle: saline) was 118 % of control, the T/C (endpoint: mean survival time, dose: 128.0 mg/kg/injection, schedule: Q01DX001 (oral), vehicle: saline) was 103 % of control and the T/C (endpoint: mean survival time, dose: 128.0 mg/kg/injection, schedule: Q01DX001 (sc), vehicle: saline) was 104 % of control. The T/C (endpoint: mean survival time, dose: 128.0 mg/kg/injection, schedule: Q01DX009 (ip), vehicle: saline) was 108 % of control, the T/C (endpoint: mean survival time, dose: 128.0 mg/kg/injection, schedule: Q01DX009 (sc), vehicle: saline) was 102 % of control and the T/C (endpoint: mean survival time, dose: 128.0 mg/kg/injection, schedule: Q03HX008 (ip), vehicle: saline) was 119 % of control. For the same compound, the T/C (endpoint: mean survival time, dose: 128.0 mg/kg/injection, schedule: Q03HX016 (ip), vehicle: saline) was 122 % of control, the T/C (endpoint: mean survival time, dose: 128.0 mg/kg/injection, schedule: Q04DX003 (ip), vehicle: saline) was 114 % of control and the T/C (endpoint: mean survival time, dose: 128.0 mg/kg/injection, schedule: Q08DX002 (ip), vehicle: saline) was 112 % of control. The T/C (endpoint: mean survival time, dose: 150.0 mg/kg/injection, schedule: Q01DX009 (ip), vehicle: saline with Tween-80) was 92 % of control, the T/C (endpoint: mean survival time, dose: 160.0 mg/kg/injection, schedule: Q01DX009 (ip), vehicle: saline) was 116 % of control and the T/C (endpoint: mean survival time, dose: 187.0 mg/kg/injection, schedule: Q04DX003 (ip), vehicle: saline with Tween-80) was 156 % of control. For the same compound, the T/C (endpoint: mean survival time, dose: 200.0 mg/kg/injection, schedule: Q01DX001 (ip), vehicle: carboxymethylcellulose (CMC)) was 124 % of control, the T/C (endpoint: mean survival time, dose: 200.0 mg/kg/injection, schedule: Q01DX003 (ip), vehicle: sodium bicarbonate) was 164 % of control and the T/C (endpoint: mean survival time, dose: 200.0 mg/kg/injection, schedule: Q01DX009 (ip), vehicle: saline) was 102 % of control. The T/C (endpoint: mean survival time, dose: 256.0 mg/kg/injection, schedule: Q01DX001 (ip), vehicle: saline) was 117 % of control, the T/C (endpoint: mean survival time, dose: 256.0 mg/kg/injection, schedule: Q01DX001 (oral), vehicle: saline) was 103 % of control and the T/C (endpoint: mean survival time, dose: 256.0 mg/kg/injection, schedule: Q01DX001 (sc), vehicle: saline) was 108 % of control. The T/C (endpoint: mean survival time, dose: 256.0 mg/kg/injection, schedule: Q01DX009 (ip), vehicle: saline) was 95 % of control, the T/C (endpoint: mean survival time, dose: 256.0 mg/kg/injection, schedule: Q08DX002 (ip), vehicle: saline) was 121 % of control and the T/C (endpoint: mean survival time, dose: 266.0 mg/kg/injection, schedule: Q04DX003 (ip), vehicle: saline with Tween-80) was 115 % of control. For the same compound, the T/C (endpoint: mean survival time, dose: 400.0 mg/kg/injection, schedule: Q01DX003 (ip), vehicle: sodium bicarbonate) was 172 % of control, the T/C (endpoint: mean survival time, dose: 400.0 mg/kg/injection, schedule: Q04DX003 (ip), vehicle: Klucel (hydroxypropylcellulose) (HPC)) was 151 % of control and the T/C (endpoint: mean survival time, dose: 512.0 mg/kg/injection, schedule: Q01DX001 (ip), vehicle: saline) was 117 % of control. For the same compound, the T/C (endpoint: mean survival time, dose: 512.0 mg/kg/injection, schedule: Q01DX001 (oral), vehicle: saline) was 97 % of control, the T/C (endpoint: mean survival time, dose: 512.0 mg/kg/injection, schedule: Q01DX001 (sc), vehicle: saline) was 106 % of control and the T/C (endpoint: mean survival time, dose: 600.0 mg/kg/injection, schedule: Q01DX003 (ip), vehicle: sodium bicarbonate) was 172 % of control. The T/C (endpoint: mean survival time, dose: 600.0 mg/kg/injection, schedule: Q04DX003 (ip), vehicle: saline with Tween-80) was 121 % of control, the T/C (endpoint: mean survival time, dose: 600.0 mg/kg/injection, schedule: Q04DX003 (ip), vehicle: saline) was 161 % of control and 159 % of control and the T/C (endpoint: mean survival time, dose: 800.0 mg/kg/injection, schedule: Q01DX003 (ip), vehicle: sodium bicarbonate) was 175 % of control. For the same compound, the T/C (endpoint: mean survival time, dose: 800.0 mg/kg/injection, schedule: Q04DX003 (ip), vehicle: Klucel (hydroxypropylcellulose) (HPC)) was 106 % of control, the T/C (endpoint: mean survival time, dose: 800.0 mg/kg/injection, schedule: Q04DX003 (ip), vehicle: saline with Tween-80) was 154 % of control and the T/C (endpoint: mean survival time, dose: 1000.0 mg/kg/injection, schedule: Q01DX003 (ip), vehicle: sodium bicarbonate) was 96 % of control. The T/C (endpoint: mean survival time, dose: 1000.0 mg/kg/injection, schedule: Q04DX003 (ip), vehicle: saline with Tween-80) was 92 % of control, the T/C (endpoint: mean survival time, dose: 1024.0 mg/kg/injection, schedule: Q01DX001 (sc), vehicle: saline) was 110 % of control and the T/C (endpoint: mean survival time, dose: 1024.0 mg/kg/injection, schedule: Q04DX003 (ip), vehicle: saline) was 150 % of control. The T/C (endpoint: median survival time, dose: 8.0 mg/kg/injection, schedule: Q01DX009 (ip), vehicle: saline) was 105 % of control, the T/C (endpoint: median survival time, dose: 8.0 mg/kg/injection, schedule: Q01DX009 (oral), vehicle: saline) was 100 % of control and the T/C (endpoint: median survival time, dose: 8.0 mg/kg/injection, schedule: Q01DX009 (sc), vehicle: saline) was 105 % of control. For the same compound, the T/C (endpoint: median survival time, dose: 16.0 mg/kg/injection, schedule: Q01DX009 (oral), vehicle: saline) was 100 % of control, the T/C (endpoint: median survival time, dose: 16.0 mg/kg/injection, schedule: Q01DX009 (sc), vehicle: saline) was 100 % of control and 105 % of control and the T/C (endpoint: median survival time, dose: 32.0 mg/kg/injection, schedule: Q01DX009 (oral), vehicle: saline) was 111 % of control. For the same compound, the T/C (endpoint: median survival time, dose: 32.0 mg/kg/injection, schedule: Q01DX009 (sc), vehicle: saline) was 111 % of control, the T/C (endpoint: median survival time, dose: 64.0 mg/kg/injection, schedule: Q01DX009 (ip), vehicle: saline) was 100 % of control and 111 % of control and the T/C (endpoint: median survival time, dose: 64.0 mg/kg/injection, schedule: Q04DX003 (ip), vehicle: saline) was 105 % of control. The T/C (endpoint: median survival time, dose: 64.0 mg/kg/injection, schedule: Q04DX003 (oral), vehicle: saline) was 100 % of control, the T/C (endpoint: median survival time, dose: 100.0 mg/kg/injection, schedule: Q04DX003 (ip), vehicle: saline) was 116 % of control and 100 % of control and the T/C (endpoint: median survival time, dose: 128.0 mg/kg/injection, schedule: Q01DX009 (ip), vehicle: saline) was 100 % of control. For the same compound, the T/C (endpoint: median survival time, dose: 128.0 mg/kg/injection, schedule: Q01DX009 (sc), vehicle: saline) was 105 % of control, the T/C (endpoint: median survival time, dose: 128.0 mg/kg/injection, schedule: Q04DX003 (oral), vehicle: saline) was 100 % of control and the T/C (endpoint: median survival time, dose: 200.0 mg/kg/injection, schedule: Q04DX003 (ip), vehicle: saline) was 111 % of control. For the same compound, the T/C (endpoint: median survival time, dose: 400.0 mg/kg/injection, schedule: Q04DX003 (ip), vehicle: saline) was 116 % of control, the T/C (endpoint: median survival time, dose: 1000.0 mg/kg/injection, schedule: Q04DX003 (ip), vehicle: saline) was 155 % of control and the T/C (endpoint: median survival time, dose: 1024.0 mg/kg/injection, schedule: Q04DX003 (ip), vehicle: saline) was 111 % of control. The T/C (endpoint: median survival time, dose: 1024.0 mg/kg/injection, schedule: Q04DX003 (sc), vehicle: saline) was 94 % of control.

From PubChem BioAssay AID248 (DTP/NCI, 2004)
